ChEMBL document CHEMBL3885881, “DrugMatrix”

Organism: Rattus norvegicus
Assay: DrugMatrix - Regimen: Daily Repeat
Format: toxicity, organism-based, Sprague-Dawley
Design: regimen Daily Repeat, gender Male, age 6-8 weeks
Conditions: in vivo, vehicle 100 % SALINE; for ABSOLUTE BASOPHIL / ABSOLUTE EOSINOPHIL / ABSOLUTE LYMPHOCYTE / ABSOLUTE MONOCYTE / ABSOLUTE SEGMENTED NEUTROPHIL / BASOPHIL / EOSINOPHIL / ERYTHROCYTE COUNT / HEMATOCRIT / HEMOGLOBIN / LEUKOCYTE COUNT / LYMPHOCYTE / MEAN CORPUSCULAR HEMOGLOBIN / MEAN CORPUSCULAR HEMOGLOBIN CONCENTRATION / MEAN CORPUSCULAR VOLUME / MONOCYTE / NEUTROPHIL / NUCLEATED RED BLOOD CELLS / PLATELET COUNT: tissue Blood
[1] = iv, 0 mg/kg, 72 h, dose level Control, time 3 day
[2] = iv, 0 mg/kg, 72 h, tissue Plasma, dose level Control, time 3 day
[3] = iv, 0 mg/kg, 120 h, dose level Control, time 5 day
[4] = iv, 0 mg/kg, 120 h, tissue Plasma, dose level Control, time 5 day
[5] = iv, 6 mg/kg, 72 h, dose level Low, time 3 day
[6] = iv, 6 mg/kg, 72 h, tissue Plasma, dose level Low, time 3 day

CARBOPLATIN
TOTAL PROTEIN (ip, 5 mg/kg, […], tissue Plasma, route intraperitoneal, dose level High, time 28 day): 6.92 G/DL | ABSOLUTE BASOPHIL [1]: 0 CELLS/uL | ABSOLUTE EOSINOPHIL [1]: 0 CELLS/uL | ABSOLUTE LYMPHOCYTE [1]: 7026.17 CELLS/uL | ABSOLUTE MONOCYTE [1]: 44.33 CELLS/uL | ABSOLUTE SEGMENTED NEUTROPHIL [1]: 379.5 CELLS/uL | BASOPHIL [1]: 0% | EOSINOPHIL [1]: 0% | ERYTHROCYTE COUNT [1]: 5.49 x10E6/uL | HEMATOCRIT [1]: 33.67% | HEMOGLOBIN [1]: 13.17 G/DL | LEUKOCYTE COUNT [1]: 7.45 x10E3/uL | LYMPHOCYTE [1]: 94% | MEAN CORPUSCULAR HEMOGLOBIN [1]: 24.03 pg | MEAN CORPUSCULAR HEMOGLOBIN CONCENTRATION [1]: 39.15 G/DL | MEAN CORPUSCULAR VOLUME [1]: 61.4 fL | MONOCYTE [1]: 0.67% | NEUTROPHIL [1]: 5.33% | NUCLEATED RED BLOOD CELLS [1]: 0.17 /100WBC | PLATELET COUNT [1]: 1062.5 x10E3/uL | ALANINE AMINOTRANSFERASE [2]: 53.17 u/L | ALKALINE PHOSPHATASE [2]: 339.83 u/L | ASPARTATE AMINOTRANSFERASE [2]: 83.33 u/L | BLOOD UREA NITROGEN [2]: 16 mg/dL | CARBON DIOXIDE [2]: 32.5 mmol/L | CHLORIDE [2]: 98 MEQ/L | CHOLESTEROL [2]: 74.67 mg/dL | CREATINE PHOSPHOKINASE [2]: 284 u/L | CREATININE [2]: 0.2 mg/dL | GLUCOSE [2]: 128.67 mg/dL | LACTATE DEHYDROGENASE [2]: 110.33 u/L | LIPASE [2]: 9 u/L | PHOSPHORUS [2]: 11.73 mg/dL | POTASSIUM [2]: 6.34 MEQ/L | TOTAL BILIRUBIN [2]: 0.18 mg/dL | TOTAL PROTEIN [2]: 6.2 G/DL | URIC ACID [2]: 1.28 mg/dL | ABSOLUTE BASOPHIL [3]: 0 CELLS/uL | ABSOLUTE EOSINOPHIL [3]: 26.67 CELLS/uL | ABSOLUTE LYMPHOCYTE [3]: 8334.17 CELLS/uL | ABSOLUTE MONOCYTE [3]: 29.5 CELLS/uL | ABSOLUTE SEGMENTED NEUTROPHIL [3]: 593 CELLS/uL | BASOPHIL [3]: 0% | EOSINOPHIL [3]: 0.33% | ERYTHROCYTE COUNT [3]: 5.44 x10E6/uL | HEMATOCRIT [3]: 33.77% | HEMOGLOBIN [3]: 13.05 G/DL | LEUKOCYTE COUNT [3]: 8.98 x10E3/uL | LYMPHOCYTE [3]: 92.33% | MEAN CORPUSCULAR HEMOGLOBIN [3]: 24 pg | MEAN CORPUSCULAR HEMOGLOBIN CONCENTRATION [3]: 38.67 G/DL | MEAN CORPUSCULAR VOLUME [3]: 62.05 fL | MONOCYTE [3]: 0.33% | NEUTROPHIL [3]: 7% | NUCLEATED RED BLOOD CELLS [3]: 0 /100WBC | PLATELET COUNT [3]: 987 x10E3/uL | ALANINE AMINOTRANSFERASE [4]: 43.5 u/L | ALKALINE PHOSPHATASE [4]: 310.17 u/L | ASPARTATE AMINOTRANSFERASE [4]: 76.67 u/L | BLOOD UREA NITROGEN [4]: 17 mg/dL | CHLORIDE [4]: 100.33 MEQ/L | CHOLESTEROL [4]: 69.33 mg/dL | CREATINE PHOSPHOKINASE [4]: 218.67 u/L | CREATININE [4]: 0.22 mg/dL | GLUCOSE [4]: 155.17 mg/dL | PHOSPHORUS [4]: 11.2 mg/dL | POTASSIUM [4]: 5.5 MEQ/L | TOTAL BILIRUBIN [4]: 0.18 mg/dL | TOTAL PROTEIN [4]: 5.97 G/DL | URIC ACID [4]: 0.88 mg/dL | ABSOLUTE BASOPHIL [5]: 0 CELLS/uL | ABSOLUTE EOSINOPHIL [5]: 20.67 CELLS/uL | ABSOLUTE LYMPHOCYTE [5]: 6996.67 CELLS/uL | ABSOLUTE MONOCYTE [5]: 29.33 CELLS/uL | ABSOLUTE SEGMENTED NEUTROPHIL [5]: 353.33 CELLS/uL | BASOPHIL [5]: 0% | EOSINOPHIL [5]: 0.33% | ERYTHROCYTE COUNT [5]: 5.49 x10E6/uL | HEMATOCRIT [5]: 35.33% | HEMOGLOBIN [5]: 13.67 G/DL | LEUKOCYTE COUNT [5]: 7.4 x10E3/uL | LYMPHOCYTE [5]: 94.67% | MEAN CORPUSCULAR HEMOGLOBIN CONCENTRATION [5]: 38.67 G/DL | MONOCYTE [5]: 0.33% | NEUTROPHIL [5]: 4.67% | NUCLEATED RED BLOOD CELLS [5]: 0 /100WBC | PLATELET COUNT [5]: 803.67 x10E3/uL | ALANINE AMINOTRANSFERASE [6]: 44.67 u/L | ALBUMIN [6]: 4.3 G/DL | ALKALINE PHOSPHATASE [6]: 291.67 u/L | ASPARTATE AMINOTRANSFERASE [6]: 75.67 u/L | CARBON DIOXIDE [6]: 32 mmol/L | CHLORIDE [6]: 97.67 MEQ/L | CHOLESTEROL [6]: 72.33 mg/dL | CREATINE PHOSPHOKINASE [6]: 262.33 u/L | CREATININE [6]: 0.2 mg/dL | GLUCOSE [6]: 147.33 mg/dL | LACTATE DEHYDROGENASE [6]: 105 u/L | LIPASE [6]: 9 u/L | POTASSIUM [6]: 6.04 MEQ/L | TOTAL BILIRUBIN [6]: 0.17 mg/dL
